According to publication PMC3838641 (Biochemistry, 2013):

How the values were obtained:
[1] = molecular target: T1, orotidine 5'-monophosphate decarboxylase (ScOMPDC) (Saccharomyces cerevisiae, UniProt P03962, R235A); experiment: UV decarboxylation kinetics of truncated substrate; assay type: biochemical
T1 sequence (P03962 2-267 R235A): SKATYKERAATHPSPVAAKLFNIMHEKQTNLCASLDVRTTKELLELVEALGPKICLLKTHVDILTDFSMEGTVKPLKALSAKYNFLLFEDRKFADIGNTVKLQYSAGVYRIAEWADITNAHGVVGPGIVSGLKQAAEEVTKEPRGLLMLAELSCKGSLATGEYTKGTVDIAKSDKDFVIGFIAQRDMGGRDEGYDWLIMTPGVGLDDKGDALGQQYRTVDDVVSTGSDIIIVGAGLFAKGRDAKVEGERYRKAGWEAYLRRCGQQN

[2] = molecular target: T1, orotidine 5'-monophosphate decarboxylase (ScOMPDC)
[3] = molecular target: T1, orotidine 5'-monophosphate decarboxylase (ScOMPDC); experiment: […] NMR deuterium exchange kinetics with purified enzyme, Michaelis-Menten fit; assay type: biochemical

## O=C(O)c1c(F)c(=O)[nH]c(=O)n1[C@@H]1OC[C@@H](O)[C@H]1O [FEO, 1-(β-D-erythrofuranosyl)-5-fluoroorotic acid]
[1]
  FEO + HPO3^2- / (kcat/Km)E: 12 M⁻¹ s⁻¹

## O=[PH](O)O [HPO3^2−, phosphite dianion]
[2]
  FEO + HPO3^2- / (kcat/Km)E•HPi/Kd (M^-2 s^-1): 250 ± 15 M^−2 s^−1

## O=c1[nH]c(=O)n([C@@H]2O[C@H](COP(=O)(O)O)[C@@H](O)[C@H]2O)cc1F [h-FUMP, 5-fluorouridine 5'-monophosphate]
[3]
  Kd: 5 mM
